Measurements taken from PubChem BioAssay (NCI).
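48-hour exposure; five concentrations; linearly interpolated endpoints. TGI is the concentration that stops growth completely.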

Assays:
Experiment in all cases: growth of human tumour cells (NCI), 48 h
[1] = test system: SNB-19 CNS
[2] = test system: NCI-H522 lung
[3] = test system: UACC-62 melanoma
[4] = test system: SK-MEL-5 melanoma
[5] = test system: A498 renal
[6] = test system: OVCAR-4 ovarian
[7] = test system: M14 melanoma
[8] = test system: RPMI-8226 leukemia
[9] = test system: U251 CNS
[10] = test system: MDA-MB-231 breast
[11] = test system: MDA-N
[12] = test system: SK-MEL-28 melanoma
[13] = test system: IGROV1 ovarian
[14] = test system: DU-145 prostate
[15] = test system: CCRF-CEM leukemia
[16] = test system: PC-3 prostate
[17] = test system: MDA-MB-435
[18] = test system: T-47D breast
[19] = test system: OVCAR-8 ovarian
[20] = test system: KM12 colon
[21] = test system: TK-10 renal
[22] = test system: EKVX NSCLC
[23] = test system: NCI-H226 lung
[24] = test system: ACHN renal
[25] = test system: OVCAR-5 ovarian
[26] = test system: SNB-75 CNS
[27] = test system: NCI-H460 lung
[28] = test system: SK-MEL-2 melanoma
[29] = test system: SF-268 CNS
[30] = test system: SF-295 CNS
[31] = test system: RXF 393 renal
[32] = test system: MOLT-4 leukemia
[33] = test system: SR leukemia
[34] = test system: UACC-257 melanoma
[35] = test system: SN12C renal
[36] = test system: A549 NSCLC
[37] = test system: NCI/ADR-RES ovarian
[38] = test system: SW-620 colon
[39] = test system: NCI-H23 lung
[40] = test system: HCC-2998 colon
[41] = test system: CAKI-1 renal
[42] = test system: BT-549 breast
[43] = test system: MALME-3M melanoma
[44] = test system: HCT-116 colon
[45] = test system: HL-60(TB) leukemia
[46] = test system: OVCAR-3 ovarian
[47] = test system: 786-0 renal
[48] = test system: HS 578T breast
[49] = test system: K-562 leukemia
[50] = test system: HCT-15 colon
[51] = test system: MCF7 breast
[52] = test system: HOP-62 NSCLC
[53] = test system: UO-31 renal
[54] = test system: COLO 205 colon
[55] = test system: LOX IMVI melanoma
[56] = test system: HOP-92 NSCLC
[57] = test system: HT29 colon
[58] = test system: SF-539 CNS
[59] = test system: SK-OV-3 ovarian

Measured: TGI

CCOC(=O)c1cc(-c2ccn(C(C)=O)c2)c(-c2cc(C)co2)[nH]1
> 100 µM: [1] | [2] | [3] | [4] | [5] | [6] | [7] | [8] | [9] | [10] | [11] | [12] | [13] | [14] | [15] | [16] | [17] | [18] | [19] | [20] | [21] | [22] | [23] | [24] | [25] | [26] | [27] | [28] | [29] | [30] | [31] | [32] | [33] | [34] | [35] | [36] | [37] | [38] | [39] | [40] | [41] | [42] | [43] | [44] | [45] | [46] | [47] | [48] | [49] | [50] | [51] | [52] | [53] | [54] | [55]

Cc1nnc(CC#N)n1NC(=O)CC#N
> 100 µM: [1] | [2] | [3] | [4] | [5] | [56] | [7] | [9] | [10] | [11] | [12] | [13] | [14] | [15] | [16] | [17] | [18] | [19] | [20] | [21] | [22] | [57] | [24] | [25] | [26] | [27] | [28] | [29] | [30] | [31] | [32] | [33] | [34] | [58] | [35] | [36] | [37] | [38] | [39] | [40] | [41] | [42] | [43] | [44] | [45] | [46] | [47] | [48] | [49] | [50] | [59] | [51] | [52] | [53] | [54] | [55]
